Values quoted from earlier work, collected in patent publication US20260248820A1, “USES OF HYDROGENATED CANNABIDIOL (H4CBD) AND ADVANCED METABOLIC SYNDROME” (The Regents of the University of California, priority 2022, published 2026).

How the values were obtained:
rodents = settings: cited from earlier work
[1] = tested on: endocannabinoid receptors; settings: cited from earlier work
[2] = tested on: diet-induced obese (DIO) and non-obese diabetic mice; settings: cited from earlier work
[3] = clinical; cited from earlier work
[4] = rats without underlying metabolic dysfunction; cited from earlier work
PTZ-induced seizure = settings: rats; cited from earlier work

In the case of `C=C(C)[C@@H]1CCC(C)=C[C@H]1c1c(O)cc(CCCCC)cc1O` [CBD, Cannabidiol], the Documented toxicity (rodents) is given as greater than 600 mg/kg, the “Affinity for the endocannabinoid receptors responsible for cannabis intoxication” value [1] is given as “little affinity” and the Incidence of diabetes [2] is given as “reduced the incidence of diabetes”. For the same molecule, the “Effects of high doses administered clinically” value [3] was “anorexic and diarrheal effects” and the Body mass gain [4] was “inhibit body mass gain”.

For `CCCCCc1cc(O)c([C@@H]2C=C(C)CC[C@H]2C(C)C)c(O)c1` [H2CBD, dihydrocannabidiol], the “Reduction of PTZ-induced seizure frequency and severity” value (PTZ-induced seizure) is given as “equal effectiveness to that of CBD”.
